Target: T1, Rhodobacter sphaeroides BcsA-B complex (cellulose synthase), wild type, BcsA SEQ ID NO: 1, BcsB SEQ ID NO: 3 (Cereibacter sphaeroides, UniProt Q3J125)
T1 construct: pETDuet, E. coli C43; purified, reconstituted in nanodiscs, proteoliposomes or detergent
T1 sequence (Q3J125 1-788): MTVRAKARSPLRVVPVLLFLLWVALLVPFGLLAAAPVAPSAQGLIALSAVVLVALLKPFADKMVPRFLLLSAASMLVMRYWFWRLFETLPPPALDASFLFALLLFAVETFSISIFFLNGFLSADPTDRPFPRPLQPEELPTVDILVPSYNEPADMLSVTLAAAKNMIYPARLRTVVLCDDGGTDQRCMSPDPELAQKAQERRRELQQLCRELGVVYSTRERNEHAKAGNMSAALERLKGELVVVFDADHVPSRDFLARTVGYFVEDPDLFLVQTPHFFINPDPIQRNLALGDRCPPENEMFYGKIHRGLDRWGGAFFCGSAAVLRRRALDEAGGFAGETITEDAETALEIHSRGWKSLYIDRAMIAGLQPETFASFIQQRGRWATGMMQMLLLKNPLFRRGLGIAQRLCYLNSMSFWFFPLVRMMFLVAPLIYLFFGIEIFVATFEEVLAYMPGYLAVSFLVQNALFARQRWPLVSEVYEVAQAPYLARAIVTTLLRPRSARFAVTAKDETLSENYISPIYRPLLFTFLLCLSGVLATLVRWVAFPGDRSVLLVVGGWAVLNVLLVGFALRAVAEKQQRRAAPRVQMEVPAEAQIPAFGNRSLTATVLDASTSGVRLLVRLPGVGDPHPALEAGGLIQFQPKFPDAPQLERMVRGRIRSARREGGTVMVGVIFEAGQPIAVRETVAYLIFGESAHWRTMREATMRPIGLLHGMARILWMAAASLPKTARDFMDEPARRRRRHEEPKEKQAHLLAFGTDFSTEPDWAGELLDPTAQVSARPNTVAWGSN
T1 sequence (Q3J126 21-725 partner): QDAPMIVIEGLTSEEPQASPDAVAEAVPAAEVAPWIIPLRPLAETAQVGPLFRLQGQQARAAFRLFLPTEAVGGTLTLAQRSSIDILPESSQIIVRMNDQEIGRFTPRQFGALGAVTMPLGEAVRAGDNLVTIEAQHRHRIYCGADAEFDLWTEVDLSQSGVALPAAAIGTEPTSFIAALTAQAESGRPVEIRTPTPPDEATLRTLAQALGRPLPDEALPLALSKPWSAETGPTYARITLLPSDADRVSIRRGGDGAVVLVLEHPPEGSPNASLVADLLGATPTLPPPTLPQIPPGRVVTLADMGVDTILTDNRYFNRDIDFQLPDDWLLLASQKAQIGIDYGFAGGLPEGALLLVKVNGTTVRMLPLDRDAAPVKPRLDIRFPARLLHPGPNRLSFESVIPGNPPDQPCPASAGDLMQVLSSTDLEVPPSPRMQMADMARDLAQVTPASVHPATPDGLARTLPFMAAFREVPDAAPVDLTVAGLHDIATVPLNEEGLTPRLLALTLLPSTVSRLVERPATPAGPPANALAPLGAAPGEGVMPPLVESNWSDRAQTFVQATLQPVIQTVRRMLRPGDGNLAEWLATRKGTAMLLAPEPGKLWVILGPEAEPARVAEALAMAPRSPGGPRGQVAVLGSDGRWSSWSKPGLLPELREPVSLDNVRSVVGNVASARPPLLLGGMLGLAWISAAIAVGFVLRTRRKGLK
Experiment: Cellulose synthesis sedimentation assay, inhibition by nucleoside diphosphates, PL-reconstituted BcsA-B
Format: biochemical
Conditions: 0.5 mM UDP-Glc; increasing nucleotide concentrations; 60 min, 37° C.
Method: FIG. 4A-4C (also referred to as Example 1, FIG. 4): Product inhibition of cellulose synthase. (FIG. 4A) Enzyme-coupled cellulose synthesis assays were performed as described in FIG. 3 in the absence or presence of 0.1 mg/ml E. coli BesZ. […] Inset: Radioactive sedimentation assay performed with ND-reconstituted BcsA-B synthesizing cellulose in the absence or presence of BcsZ. (FIG. 4B) Inhibition of cellulose synthesis by UDP. Cellulose synthesis sedimentation assays were performed with 1 μM PL-reconstituted BesA-B in the presence of increasing concentrations of the indicated nucleotides and 0.5 mM UDP-Glc for 60 min at 37° C. The obtained product is quantified relative to the polymer formed in the absence of any nucleoside diphosphate. (FIG. 4C) UDP is a competitive inhibitor of cellulose synthase. […] The products are quantified relative to the polymer formed in the absence of UDP and the presence of 5 mM UDP-Glc. […]
Standard cellulose synthase sedimentation assays were performed by incubating 1 μM of cellulose synthase complexes, either in PLs, ND or detergent micelles, in the presence of 30 μM c-di-GMP, 20 mM MgCl2, 5 mM UDP-Glc and 0.25 μCi UDP-[3H]-Glc in AB-buffer lacking glycerol and containing only 0.1 M NaCl. […] Following paper chromatography, the high molecular weight polymer retained at the origin was quantified by scintillation counting. […]

| SMILES | inhibition of cellulose synthesis by nucleoside diphosphates |
| --- | --- |
| Nc1ncnc2c1ncn2[C@@H]1O[C@H](COP(=O)(O)OP(=O)(O)O)[C@@H](O)[C@H]1O [adenosine-diphosphate] | do not inhibit cellulose synthesis |
| Nc1nc2c(ncn2[C@@H]2O[C@H](COP(=O)(O)OP(=O)(O)O)[C@@H](O)[C@H]2O)c(=O)[nH]1 [guanosine-diphosphate] | do not inhibit cellulose synthesis |

Reference: patent publication US9890407B2, “Method for synthesizing cellulose in vitro” (University of Virginia Patent Foundation, priority 2013, dated 2018)
